Key:
[1] = Dynamic vapor sorption (DVS) hygroscopicity; format: physicochemical; details: at 80% RH, 25° C.
Protocol: Form A may be observed EP-1. […] (peak temperature) which is accompanied by 5.9 wt % weight loss up to ˜150° C. in the TGA curve (FIG. 3). […] Form A is hygroscopic as indicated by water adsorption of 5.8 wt % at 80% RH measured by dynamic vapor sorption (DVS) (FIG. 4). A solid is considered moderately hygroscopic when water uptake at 25° C./80% RH is between 2-15 wt % based on criteria of European Pharmacopeia.
Form B of EP-1 trihydrate (x is 3) is a trihydrate as confirmed by single crystal analysis. The experimental XRPD pattern of Form B matches well with the simulated one from single crystal data (FIG. 6). This was also confirmed by DSC and TGA data (FIG. 7 and FIG. 8, respectively). DSC data indicates Form B dehydrates at ˜132° C. […] Form B is slightly hygroscopic as evidenced by a weight change of ˜0.3% between 0% and 95% RH (FIG. 9), (data collection was programmed from 95% RH-0% RH-95% RH at a step size of 10% RH at 25° C.).

[2] = Solubility in Simulated Gastric Fluid (SGF) at 37° C.; format: physicochemical
Protocol: To study if Form A and Form B would perform differently in stomach, the solubilities of Form A and Form B were measured in Simulated Gastric Fluid (SGF, see below for SGF preparation) at 37° C. In these experiments, about 100 mg Form A and 50 mg Form B were weighed into 20-ml glass vials, followed by addition of 4 ml SGF into each vial and the samples were stirred at 37° C. Aliquots were taken for solubility determination using HPLC after 15, 30, and 60 min, respectively. The remaining solids after each time point were subject to XRPD analysis.
Weigh appropriate amount of hydrochloride (HCl) and sodium chloride (NaCl) into a 1-L flask followed by addition of 1-L deionized water. The mixture was stirred until all solids are dissolved. Check pH value with a pH-meter and adjust the pH to 1.8 with HCl (1N) or NaOH (1N).

## CC(C)N(CC1O[C@@H](n2cnc3c(N)ncnc32)[C@H](O)[C@@H]1O)C1CC(CCc2nc3cc(C(C)(C)C)ccc3[nH]2)C1 (stereo partly drawn) [Form A, (2R,3R,4S,5R)-2-(6-amino-9H-purin-9-yl)-5-((((1r,3S)-3-(2-(5-(tert-butyl)-1H-benzo[d]imidazol-2-yl)ethyl)cyclobutyl)(isopropyl)amino)methyl)tetrahydrofuran-3,4-diol hydrate]
[1]
  water adsorption: 5.8 wt %
[2]
  time of conversion to Form B in SGF: ≤ 15 min
[2]; Simulated Gastric Fluid (SGF), pH 1.8, simulated gastric fluid, thermodynamic from solid, 15 min, calculated using free base content
  solubility at 15 min: 5400 µg/mL
[2]; Simulated Gastric Fluid (SGF), pH 1.8, simulated gastric fluid, thermodynamic from solid, 30 min, calculated using free base content
  solubility at 30 min: 5500 µg/mL
[2]; Simulated Gastric Fluid (SGF), pH 1.8, simulated gastric fluid, thermodynamic from solid, 60 min, calculated using free base content
  solubility at 60 min: 5300 µg/mL

Reference: patent US9701707B2, “Methods of synthesizing substituted purine compounds” (Epizyme, Inc., priority 2013, dated 2017)
